Test results from ChEMBL document CHEMBL4219148, “Discovery of a highly potent orally bioavailable imidazo-[1, 2-a]pyrazine Aurora inhibitor” (Bioorg Med Chem Lett, 2018).
pIC50: −log10 of the molar value.

How the values were obtained:
[1] = molecular target: Aurora kinase B (Homo sapiens, UniProt Q96GD4); assay: Inhibition of Aurora B (unknown origin) using Tamra-PKAtide as substrate by fluorescence polarization assay
[2] = molecular target: T1, Ephrin type-B receptor 4 (Homo sapiens, UniProt P54760); assay: Inhibition of EPHB4 (unknown origin)
T1 sequence (P54760 whole entry): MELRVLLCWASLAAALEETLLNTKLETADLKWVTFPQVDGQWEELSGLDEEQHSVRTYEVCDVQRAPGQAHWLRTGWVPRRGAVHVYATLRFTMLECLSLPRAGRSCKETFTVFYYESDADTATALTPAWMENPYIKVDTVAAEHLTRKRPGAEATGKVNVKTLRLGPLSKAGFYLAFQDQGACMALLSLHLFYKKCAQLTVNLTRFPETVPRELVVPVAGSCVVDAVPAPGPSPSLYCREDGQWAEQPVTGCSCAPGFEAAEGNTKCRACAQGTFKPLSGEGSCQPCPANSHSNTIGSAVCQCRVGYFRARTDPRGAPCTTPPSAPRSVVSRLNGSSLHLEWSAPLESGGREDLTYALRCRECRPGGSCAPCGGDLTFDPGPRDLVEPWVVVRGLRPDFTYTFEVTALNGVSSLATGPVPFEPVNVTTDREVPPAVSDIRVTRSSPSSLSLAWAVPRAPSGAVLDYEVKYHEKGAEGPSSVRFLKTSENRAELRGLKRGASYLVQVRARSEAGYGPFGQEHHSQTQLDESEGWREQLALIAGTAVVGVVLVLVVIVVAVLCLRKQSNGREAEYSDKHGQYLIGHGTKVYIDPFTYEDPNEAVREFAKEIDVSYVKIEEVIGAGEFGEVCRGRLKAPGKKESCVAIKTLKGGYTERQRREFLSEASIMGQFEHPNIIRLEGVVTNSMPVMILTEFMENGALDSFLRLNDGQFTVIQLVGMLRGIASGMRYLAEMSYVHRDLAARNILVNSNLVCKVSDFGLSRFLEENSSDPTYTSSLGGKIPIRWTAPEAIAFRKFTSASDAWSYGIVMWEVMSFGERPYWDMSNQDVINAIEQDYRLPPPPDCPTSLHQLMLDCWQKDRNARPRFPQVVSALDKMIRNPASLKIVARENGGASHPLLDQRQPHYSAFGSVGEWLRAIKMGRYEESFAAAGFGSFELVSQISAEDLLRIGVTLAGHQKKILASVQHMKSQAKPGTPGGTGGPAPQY

[3] = molecular target: Hepatocyte growth factor receptor (Homo sapiens, UniProt P08581); assay: Inhibition of MET (unknown origin)
[4] = molecular target: T2, Calcium/calmodulin-dependent protein kinase type IV (Homo sapiens, UniProt Q16566); assay: Inhibition of CAMK4 (unknown origin)
T2 sequence (Q16566 whole entry): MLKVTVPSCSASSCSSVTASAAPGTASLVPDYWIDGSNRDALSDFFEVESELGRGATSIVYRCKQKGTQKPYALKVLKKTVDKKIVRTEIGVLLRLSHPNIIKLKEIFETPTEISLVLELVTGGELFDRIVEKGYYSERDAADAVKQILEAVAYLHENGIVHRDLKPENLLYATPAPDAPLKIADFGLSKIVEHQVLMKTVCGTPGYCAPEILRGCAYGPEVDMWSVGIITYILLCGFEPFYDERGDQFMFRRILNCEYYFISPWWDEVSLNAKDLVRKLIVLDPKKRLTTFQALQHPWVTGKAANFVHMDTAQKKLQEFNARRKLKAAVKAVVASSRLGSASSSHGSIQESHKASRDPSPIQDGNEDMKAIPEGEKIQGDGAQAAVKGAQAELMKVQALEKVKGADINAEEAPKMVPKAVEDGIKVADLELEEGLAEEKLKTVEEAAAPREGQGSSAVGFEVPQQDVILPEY

[5] = molecular target: Cyclin-dependent kinase 2 (Homo sapiens, UniProt P24941); assay: Inhibition of CDK2 (unknown origin)
[6] = molecular target: Casein kinase I isoform delta (Homo sapiens, UniProt P48730); assay: Inhibition of CSNK1D (unknown origin)
[7] = molecular target: Epidermal growth factor receptor (Homo sapiens, UniProt P00533); assay: Inhibition of EGFR (unknown origin)
[8] = molecular target: Insulin-like growth factor 1 receptor (Homo sapiens, UniProt P08069); assay: Inhibition of IGF1R (unknown origin)
[9] = molecular target: T3, Inhibitor of nuclear factor kappa-B kinase subunit beta (Homo sapiens, UniProt O14920); assay: Inhibition of IKKB (unknown origin)
T3 sequence (O14920 whole entry): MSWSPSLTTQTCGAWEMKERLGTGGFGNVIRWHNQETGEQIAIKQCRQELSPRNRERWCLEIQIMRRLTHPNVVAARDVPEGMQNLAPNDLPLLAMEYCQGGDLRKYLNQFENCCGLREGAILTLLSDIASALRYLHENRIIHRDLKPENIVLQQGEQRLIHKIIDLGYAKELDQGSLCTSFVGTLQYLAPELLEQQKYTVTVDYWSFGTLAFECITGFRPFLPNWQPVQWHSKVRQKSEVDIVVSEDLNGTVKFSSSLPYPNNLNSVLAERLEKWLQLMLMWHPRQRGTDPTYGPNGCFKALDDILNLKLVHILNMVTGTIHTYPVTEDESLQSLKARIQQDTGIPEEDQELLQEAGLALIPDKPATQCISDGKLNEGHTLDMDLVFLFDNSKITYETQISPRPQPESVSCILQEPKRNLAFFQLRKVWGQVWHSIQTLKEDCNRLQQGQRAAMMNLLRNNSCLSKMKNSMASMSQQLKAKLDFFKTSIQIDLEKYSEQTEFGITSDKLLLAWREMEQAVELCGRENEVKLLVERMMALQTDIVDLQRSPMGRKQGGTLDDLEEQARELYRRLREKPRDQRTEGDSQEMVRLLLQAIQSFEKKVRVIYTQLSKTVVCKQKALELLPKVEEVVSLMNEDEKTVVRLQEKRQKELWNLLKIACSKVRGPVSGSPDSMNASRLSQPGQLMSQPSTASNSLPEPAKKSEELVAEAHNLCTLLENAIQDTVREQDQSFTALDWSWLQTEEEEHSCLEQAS

[10] = molecular target: Protein kinase C alpha type (Homo sapiens, UniProt P17252); assay: Inhibition of PKCA (unknown origin)
[11] = molecular target: Serine/threonine-protein kinase PLK3 (Homo sapiens, UniProt Q9H4B4); assay: Inhibition of PLK3 (unknown origin)

Chain of Insulin-like growth factor 1 receptor (P08069 31-736 limits assumed): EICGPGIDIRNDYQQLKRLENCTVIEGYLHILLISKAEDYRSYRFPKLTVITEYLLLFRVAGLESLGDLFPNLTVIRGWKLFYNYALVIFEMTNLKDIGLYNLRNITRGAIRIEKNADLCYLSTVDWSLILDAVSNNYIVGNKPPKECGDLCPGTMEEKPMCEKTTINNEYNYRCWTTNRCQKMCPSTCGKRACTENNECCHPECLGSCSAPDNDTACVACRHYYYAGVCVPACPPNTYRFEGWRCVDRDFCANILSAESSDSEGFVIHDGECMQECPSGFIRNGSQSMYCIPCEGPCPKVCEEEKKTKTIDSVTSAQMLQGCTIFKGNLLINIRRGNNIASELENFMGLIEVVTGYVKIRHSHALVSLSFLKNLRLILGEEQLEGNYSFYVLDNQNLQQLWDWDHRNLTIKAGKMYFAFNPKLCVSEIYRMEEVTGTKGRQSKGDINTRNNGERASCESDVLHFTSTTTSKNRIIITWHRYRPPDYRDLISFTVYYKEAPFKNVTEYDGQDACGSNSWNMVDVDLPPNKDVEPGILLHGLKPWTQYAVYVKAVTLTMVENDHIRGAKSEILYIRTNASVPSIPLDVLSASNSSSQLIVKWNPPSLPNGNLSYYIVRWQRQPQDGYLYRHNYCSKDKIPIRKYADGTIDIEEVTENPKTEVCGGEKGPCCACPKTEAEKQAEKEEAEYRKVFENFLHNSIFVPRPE
Chain of Insulin-like growth factor 1 receptor (P08069 741-1367 limits assumed): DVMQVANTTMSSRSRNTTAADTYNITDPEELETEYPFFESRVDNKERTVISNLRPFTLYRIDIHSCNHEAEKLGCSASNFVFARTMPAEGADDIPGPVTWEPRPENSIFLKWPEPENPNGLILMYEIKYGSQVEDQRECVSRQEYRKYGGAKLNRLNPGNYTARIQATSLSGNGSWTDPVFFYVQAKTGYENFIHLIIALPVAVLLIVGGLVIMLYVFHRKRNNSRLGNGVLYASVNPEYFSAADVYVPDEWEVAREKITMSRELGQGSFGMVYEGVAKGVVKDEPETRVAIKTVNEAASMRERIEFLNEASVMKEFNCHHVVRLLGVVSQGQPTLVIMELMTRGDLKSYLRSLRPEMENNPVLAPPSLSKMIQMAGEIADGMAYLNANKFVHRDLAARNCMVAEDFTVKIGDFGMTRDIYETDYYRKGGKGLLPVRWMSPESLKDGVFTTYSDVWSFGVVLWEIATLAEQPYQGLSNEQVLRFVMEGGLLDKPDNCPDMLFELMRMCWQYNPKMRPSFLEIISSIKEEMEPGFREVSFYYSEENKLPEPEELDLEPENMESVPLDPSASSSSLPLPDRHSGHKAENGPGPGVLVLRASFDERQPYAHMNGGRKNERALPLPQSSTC
Chain of Hepatocyte growth factor receptor (P08581 whole entry): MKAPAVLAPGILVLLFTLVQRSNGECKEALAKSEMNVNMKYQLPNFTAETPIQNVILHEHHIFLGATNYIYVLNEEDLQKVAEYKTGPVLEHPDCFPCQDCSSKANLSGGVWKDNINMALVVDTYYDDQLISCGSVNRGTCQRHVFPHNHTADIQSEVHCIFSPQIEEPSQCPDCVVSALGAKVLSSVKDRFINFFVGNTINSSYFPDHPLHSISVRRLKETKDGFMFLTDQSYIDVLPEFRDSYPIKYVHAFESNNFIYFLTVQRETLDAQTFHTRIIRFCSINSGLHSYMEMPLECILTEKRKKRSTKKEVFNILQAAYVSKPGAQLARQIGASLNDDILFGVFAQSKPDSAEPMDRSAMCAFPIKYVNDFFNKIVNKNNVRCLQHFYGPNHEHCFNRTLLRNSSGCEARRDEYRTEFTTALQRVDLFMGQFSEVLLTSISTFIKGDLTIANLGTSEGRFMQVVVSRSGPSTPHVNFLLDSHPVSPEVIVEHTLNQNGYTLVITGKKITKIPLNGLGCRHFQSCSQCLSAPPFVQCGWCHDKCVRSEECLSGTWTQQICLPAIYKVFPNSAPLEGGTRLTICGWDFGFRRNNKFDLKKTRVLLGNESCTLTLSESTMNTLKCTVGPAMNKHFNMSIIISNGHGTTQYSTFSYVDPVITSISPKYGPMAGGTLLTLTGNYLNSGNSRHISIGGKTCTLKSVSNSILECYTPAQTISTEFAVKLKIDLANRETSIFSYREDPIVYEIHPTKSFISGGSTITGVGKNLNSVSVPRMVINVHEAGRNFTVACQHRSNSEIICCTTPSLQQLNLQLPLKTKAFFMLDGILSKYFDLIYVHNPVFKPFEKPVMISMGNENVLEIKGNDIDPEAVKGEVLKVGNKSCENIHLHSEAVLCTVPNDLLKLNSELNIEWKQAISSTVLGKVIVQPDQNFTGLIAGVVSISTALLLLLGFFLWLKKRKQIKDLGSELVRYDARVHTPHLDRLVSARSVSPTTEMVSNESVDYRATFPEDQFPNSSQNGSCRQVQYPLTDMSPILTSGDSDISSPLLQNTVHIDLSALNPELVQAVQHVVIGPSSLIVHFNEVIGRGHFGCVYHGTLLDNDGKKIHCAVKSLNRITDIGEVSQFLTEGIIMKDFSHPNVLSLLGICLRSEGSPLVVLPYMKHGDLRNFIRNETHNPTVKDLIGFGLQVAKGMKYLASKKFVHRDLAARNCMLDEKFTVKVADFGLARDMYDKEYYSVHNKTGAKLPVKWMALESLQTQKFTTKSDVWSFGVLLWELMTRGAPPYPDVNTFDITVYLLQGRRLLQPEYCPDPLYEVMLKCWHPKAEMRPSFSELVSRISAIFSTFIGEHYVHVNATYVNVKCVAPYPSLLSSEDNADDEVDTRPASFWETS
Chain of Epidermal growth factor receptor (P00533 whole entry): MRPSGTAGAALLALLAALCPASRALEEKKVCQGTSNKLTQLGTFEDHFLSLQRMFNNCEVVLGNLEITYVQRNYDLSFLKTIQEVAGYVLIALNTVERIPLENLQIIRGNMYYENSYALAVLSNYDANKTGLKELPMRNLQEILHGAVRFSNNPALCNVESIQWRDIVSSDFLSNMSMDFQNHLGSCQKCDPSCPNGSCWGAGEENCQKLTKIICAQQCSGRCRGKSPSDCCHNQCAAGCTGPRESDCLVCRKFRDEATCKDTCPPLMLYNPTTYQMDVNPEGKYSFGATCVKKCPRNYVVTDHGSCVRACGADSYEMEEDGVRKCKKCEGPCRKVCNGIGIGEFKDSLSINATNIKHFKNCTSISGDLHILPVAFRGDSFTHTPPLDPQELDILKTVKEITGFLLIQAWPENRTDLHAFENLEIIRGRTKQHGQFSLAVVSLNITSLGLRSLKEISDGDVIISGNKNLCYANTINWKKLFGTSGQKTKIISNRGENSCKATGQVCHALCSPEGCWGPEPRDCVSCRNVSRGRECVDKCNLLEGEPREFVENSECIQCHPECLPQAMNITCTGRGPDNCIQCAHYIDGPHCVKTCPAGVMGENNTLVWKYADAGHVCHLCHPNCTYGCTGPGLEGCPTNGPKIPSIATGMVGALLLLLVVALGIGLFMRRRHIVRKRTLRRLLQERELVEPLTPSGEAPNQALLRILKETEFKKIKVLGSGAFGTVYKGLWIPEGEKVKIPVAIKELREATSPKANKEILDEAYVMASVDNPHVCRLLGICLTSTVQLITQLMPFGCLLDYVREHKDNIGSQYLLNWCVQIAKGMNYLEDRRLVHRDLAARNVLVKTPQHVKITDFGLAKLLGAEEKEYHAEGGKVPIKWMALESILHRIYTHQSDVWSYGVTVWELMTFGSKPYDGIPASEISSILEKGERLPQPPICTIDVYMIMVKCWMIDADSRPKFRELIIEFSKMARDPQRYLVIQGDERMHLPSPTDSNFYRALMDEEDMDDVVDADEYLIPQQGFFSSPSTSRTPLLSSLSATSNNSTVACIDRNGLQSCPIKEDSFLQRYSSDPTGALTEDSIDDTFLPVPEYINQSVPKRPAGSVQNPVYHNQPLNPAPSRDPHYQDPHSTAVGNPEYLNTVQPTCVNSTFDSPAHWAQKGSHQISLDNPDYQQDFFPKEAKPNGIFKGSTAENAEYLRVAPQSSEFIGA
Chain of Aurora kinase B (Q96GD4 whole entry): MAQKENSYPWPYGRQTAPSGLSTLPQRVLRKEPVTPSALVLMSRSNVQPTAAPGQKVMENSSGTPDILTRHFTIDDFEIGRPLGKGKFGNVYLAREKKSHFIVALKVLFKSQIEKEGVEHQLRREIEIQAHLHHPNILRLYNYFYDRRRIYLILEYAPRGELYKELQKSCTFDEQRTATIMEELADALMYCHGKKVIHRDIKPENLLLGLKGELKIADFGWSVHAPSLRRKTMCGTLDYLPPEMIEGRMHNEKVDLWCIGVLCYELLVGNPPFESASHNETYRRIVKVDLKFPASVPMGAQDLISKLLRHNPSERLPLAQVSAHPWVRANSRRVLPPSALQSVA
Chain of Casein kinase I isoform delta (P48730 whole entry, canonical isoform): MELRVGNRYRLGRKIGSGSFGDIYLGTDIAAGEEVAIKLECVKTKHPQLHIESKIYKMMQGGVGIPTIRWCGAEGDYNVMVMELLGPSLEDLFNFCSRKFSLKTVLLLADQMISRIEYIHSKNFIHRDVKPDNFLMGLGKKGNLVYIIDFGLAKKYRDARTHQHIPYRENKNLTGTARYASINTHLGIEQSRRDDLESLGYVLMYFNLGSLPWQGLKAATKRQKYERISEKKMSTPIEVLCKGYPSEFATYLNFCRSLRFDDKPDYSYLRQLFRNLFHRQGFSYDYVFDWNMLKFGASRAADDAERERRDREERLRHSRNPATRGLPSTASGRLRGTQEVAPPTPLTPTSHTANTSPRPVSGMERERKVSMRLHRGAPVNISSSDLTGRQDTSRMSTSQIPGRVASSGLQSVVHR

| pIC50 [1] | pIC50 [2] | pIC50 [3] | pIC50 [4] | pIC50 [5] | pIC50 [6] | pIC50 [7] | pIC50 [8] | pIC50 [9] | pIC50 [10] | pIC50 [11] | Compound |
| --- | --- | --- | --- | --- | --- | --- | --- | --- | --- | --- | --- |
| > 7.89 | 6.41 | < 6.30 | < 6.30 | < 6.30 | < 6.30 | < 6.30 | < 6.30 | < 6.30 | < 6.30 | < 6.30 | Cc1cn2c(-c3cn[nH]c3)cnc2c(Nc2cc(Cc3ccccn3)ns2)n1 |
| > 7.89 | 7.00 | < 6.30 | < 6.30 | < 6.30 | < 6.30 | < 6.30 | < 6.30 | < 6.30 | < 6.30 | < 6.30 | CCN(CCO)Cc1cc(Nc2nc(C)cn3c(-c4cn[nH]c4)cnc23)sn1 |

| Compound | pIC50 [1] | pIC50 [2] | pIC50 [3] | pIC50 [4] | pIC50 [5] | pIC50 [6] | pIC50 [7] | pIC50 [8] | pIC50 [9] | pIC50 [10] | pIC50 [11] |
| --- | --- | --- | --- | --- | --- | --- | --- | --- | --- | --- | --- |
| Cc1cn2c(-c3cn[nH]c3)cnc2c(Nc2cc(C(NC(C)(C)C)c3ccccn3)ns2)n1 (single isomer, unassigned; (+)) | ≥ 7.89 | 7.42 | < 6.00 | < 6.00 | < 6.00 | < 6.00 | < 6.00 | < 6.00 | < 6.00 | < 6.00 | < 6.00 |
